Source: ChEMBL document CHEMBL4414666, “Structure-Activity Relationships of Pentacyclic Triterpenoids as Inhibitors of Cyclooxygenase and Lipoxygenase Enzymes” (J Nat Prod, 2019)

Columns and labels:
[1] = target: T1, Polyunsaturated fatty acid lipoxygenase ALOX15B (Homo sapiens) (UniProt O15296); assay: Inhibition of human recombinant N-terminal His-tagged 15-LOX2 expressed in Escherichia coli assessed as residual activity at 42 uM using arachidonic acid as substrate preincubated for 5 mins followed by substrate addition measured after 20 mins in dark by ferric ion oxidation-xylenol orange assay relative to control
T1 sequence (whole entry): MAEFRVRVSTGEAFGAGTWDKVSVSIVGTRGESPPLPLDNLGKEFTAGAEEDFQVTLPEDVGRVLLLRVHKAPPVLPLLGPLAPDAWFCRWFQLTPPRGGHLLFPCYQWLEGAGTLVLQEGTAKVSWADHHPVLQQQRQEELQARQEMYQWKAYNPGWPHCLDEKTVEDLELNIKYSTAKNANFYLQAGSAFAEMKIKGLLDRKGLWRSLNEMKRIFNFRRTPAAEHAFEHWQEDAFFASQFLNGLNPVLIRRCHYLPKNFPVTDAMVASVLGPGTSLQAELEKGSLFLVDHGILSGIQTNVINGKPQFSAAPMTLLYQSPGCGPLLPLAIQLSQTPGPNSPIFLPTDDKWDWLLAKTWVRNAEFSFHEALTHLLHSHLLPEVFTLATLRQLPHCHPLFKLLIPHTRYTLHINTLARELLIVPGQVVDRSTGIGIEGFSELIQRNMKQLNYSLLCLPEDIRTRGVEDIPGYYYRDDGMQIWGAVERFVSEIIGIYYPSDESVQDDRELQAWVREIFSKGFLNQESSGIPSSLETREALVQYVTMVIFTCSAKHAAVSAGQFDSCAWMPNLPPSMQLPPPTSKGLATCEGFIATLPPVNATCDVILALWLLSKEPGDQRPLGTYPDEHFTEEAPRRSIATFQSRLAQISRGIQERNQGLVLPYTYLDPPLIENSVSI

[2] = target: T2, Polyunsaturated fatty acid lipoxygenase ALOX15B (Homo sapiens, UniProt O15296); assay: Inhibition of human recombinant N-terminal His-tagged 15-LOX2 expressed in Escherichia coli using arachidonic acid as substrate preincubated for 5 mins followed by substrate addition measured after 20 mins in dark by ferric ion oxidation-xylenol orange assay
T2 sequence (O15296 whole entry): T1 sequence (whole entry)

[3] = target: T3, Prostaglandin G/H synthase 2 (Homo sapiens, UniProt P35354); assay: biochemical; format: cell-based, Sf21;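 note: recombinant enzyme produced in baculovirus-infected Sf21 cells, arachidonic acid substrate, PGE2 output quantified by LC-MS after 45 min, compounds preincubated 10 min beforehand, lower PGE2 means inhibition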
T3 sequence (P35354 whole entry): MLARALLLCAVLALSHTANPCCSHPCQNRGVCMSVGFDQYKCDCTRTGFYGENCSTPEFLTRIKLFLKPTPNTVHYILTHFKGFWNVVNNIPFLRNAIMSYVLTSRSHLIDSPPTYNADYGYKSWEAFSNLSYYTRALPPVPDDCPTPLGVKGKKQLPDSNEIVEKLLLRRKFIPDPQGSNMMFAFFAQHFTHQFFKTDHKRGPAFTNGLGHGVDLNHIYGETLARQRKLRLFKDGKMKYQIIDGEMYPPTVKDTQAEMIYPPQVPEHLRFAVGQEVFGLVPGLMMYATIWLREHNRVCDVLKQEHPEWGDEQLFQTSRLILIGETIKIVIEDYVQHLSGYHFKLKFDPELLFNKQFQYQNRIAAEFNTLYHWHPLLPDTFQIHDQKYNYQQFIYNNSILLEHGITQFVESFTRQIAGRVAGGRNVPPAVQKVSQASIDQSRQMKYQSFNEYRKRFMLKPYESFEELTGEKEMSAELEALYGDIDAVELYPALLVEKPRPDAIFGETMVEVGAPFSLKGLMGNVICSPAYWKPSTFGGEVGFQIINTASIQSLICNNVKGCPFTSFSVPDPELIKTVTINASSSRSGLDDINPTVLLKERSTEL
Description: Inhibition of human recombinant COX2 expressed in baculovirus infected sf21 cells assessed as decrease in PGE2 formation using arachidonic acid as substrate preincubated for 10 mins followed by substrate addition measured after 45 mins by LC-MS analysis

[4] = target: T4, Polyunsaturated fatty acid 5-lipoxygenase (Homo sapiens, UniProt P09917); assay: Inhibition of human recombinant 5-LOX expressed in insect cells assessed as decrease in production of 5-HPETE and 5-HETE using arachidonic acid as substrate preincubated for 5 mins followed by substrate addition measured after 20 mins in dark by ferric ion oxidation-xylenol orange method
T4 sequence (P09917 whole entry): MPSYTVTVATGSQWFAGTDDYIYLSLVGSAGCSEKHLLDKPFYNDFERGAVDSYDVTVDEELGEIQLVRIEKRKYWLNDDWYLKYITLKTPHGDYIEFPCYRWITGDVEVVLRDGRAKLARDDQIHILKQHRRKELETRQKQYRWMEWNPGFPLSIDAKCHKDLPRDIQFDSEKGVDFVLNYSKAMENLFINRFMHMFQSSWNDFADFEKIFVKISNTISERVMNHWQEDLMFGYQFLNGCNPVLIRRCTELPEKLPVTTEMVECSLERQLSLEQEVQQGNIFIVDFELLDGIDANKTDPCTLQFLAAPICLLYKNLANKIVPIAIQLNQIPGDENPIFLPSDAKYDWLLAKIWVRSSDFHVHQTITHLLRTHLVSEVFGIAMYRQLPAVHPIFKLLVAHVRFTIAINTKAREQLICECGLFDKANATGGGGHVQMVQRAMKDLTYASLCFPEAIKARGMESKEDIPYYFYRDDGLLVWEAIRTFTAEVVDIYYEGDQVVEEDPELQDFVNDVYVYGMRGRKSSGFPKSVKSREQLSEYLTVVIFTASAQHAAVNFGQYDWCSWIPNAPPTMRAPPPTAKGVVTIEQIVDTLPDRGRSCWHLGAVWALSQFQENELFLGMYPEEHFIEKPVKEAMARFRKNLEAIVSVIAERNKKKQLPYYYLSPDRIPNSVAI

[5] = target: T5, Polyunsaturated fatty acid 5-lipoxygenase (Homo sapiens) (UniProt P09917); assay: Inhibition of human recombinant 5-LOX expressed in insect cells assessed residual activity using arachidonic acid at 42 uM as substrate preincubated for 5 mins followed by substrate addition measured after 20 mins in dark by ferric ion oxidation-xylenol orange method relative to control
T5 sequence (whole entry): T4 sequence (P09917 whole entry)

[6] = target: T6, Prostaglandin G/H synthase 1 (Ovis aries, UniProt P05979);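 note: recombinant ovine COX1 enzyme, PGE2 formed from arachidonic acid quantified by LC-MS, 10 min inhibitor preincubation then 45 min reaction, inhibition seen as reduced PGE2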
T6 sequence (P05979 whole entry): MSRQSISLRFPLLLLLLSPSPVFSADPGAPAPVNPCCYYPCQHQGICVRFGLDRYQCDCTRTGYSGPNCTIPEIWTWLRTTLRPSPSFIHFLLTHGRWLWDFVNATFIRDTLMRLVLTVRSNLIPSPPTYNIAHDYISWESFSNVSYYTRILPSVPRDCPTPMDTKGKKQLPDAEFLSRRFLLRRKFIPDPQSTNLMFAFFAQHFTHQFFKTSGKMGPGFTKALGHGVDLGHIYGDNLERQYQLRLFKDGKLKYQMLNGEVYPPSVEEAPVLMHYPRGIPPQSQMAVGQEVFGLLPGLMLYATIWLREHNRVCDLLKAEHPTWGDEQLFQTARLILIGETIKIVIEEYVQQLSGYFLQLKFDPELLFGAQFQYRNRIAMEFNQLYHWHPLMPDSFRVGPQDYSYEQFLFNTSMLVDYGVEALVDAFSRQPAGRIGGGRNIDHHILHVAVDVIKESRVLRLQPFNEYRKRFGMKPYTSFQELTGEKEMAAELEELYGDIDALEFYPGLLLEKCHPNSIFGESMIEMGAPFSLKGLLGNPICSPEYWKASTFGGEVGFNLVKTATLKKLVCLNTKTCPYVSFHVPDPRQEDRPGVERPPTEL
Description: Inhibition of ovine recombinant COX1 assessed as decrease in formation of PGE2 using arachidonic acid as substrate preincubated for 10 mins followed by substrate addition measured after 45 mins by LC-MS analysis

Activity [1] | IC50 ([2]; read-out: IC50) | IC50 ([3]; read-out: IC50) | IC50 ([4]; read-out: IC50) | Activity [5] | IC50 [2] | IC50 ([3]; sf21) | IC50 [6] | IC50 [4] | SMILES
63.6% | > 40 µM | > 40 µM | > 40 µM | 64% | – | – | – | – | C[C@H]1[C@H](C)CC[C@]2(C(=O)O)CC[C@]3(C)C(=CC[C@@H]4[C@@]5(C)CC[C@H](O)C(C)(C)[C@@H]5CC[C@]43C)[C@H]12 [URSOLIC ACID]
100% | – | – | 30.6 µM | 29.8% | Not Active | Not Active | Not Active | – | CC1(C)CC[C@]2(C)CC[C@]3(C)C(=CC[C@@H]4[C@@]5(C)CC[C@H](O)[C@](C)(CO)[C@@H]5CC[C@]43C)[C@@H]2C1
100% | – | – | > 40 µM | 55.5% | Not Active | Not Active | Not Active | – | C[C@H]1[C@H](C)CC[C@]2(C)CC[C@]3(C)C(=CC[C@@H]4[C@@]5(C)CC[C@H](O)C(C)(C)[C@@H]5CC[C@]43C)[C@H]12
100% | – | > 40 µM | > 40 µM | 93.1% | Not Active | – | – | – | CC(=O)O[C@@H]1CC[C@@]2(C)[C@@H](CC[C@]3(C)[C@@H]2CC=C2[C@@H]4CC(C)(C)CC[C@]4(C)CC[C@]23C)[C@@]1(C)C(=O)O
81.7% | > 40 µM | > 40 µM | 35.6 µM | 41.2% | – | – | – | – | CC(=O)O[C@@H]1CC[C@@]2(C)[C@@H](CC[C@]3(C)[C@@H]2C(=O)C=C2[C@@H]4[C@@H](C)[C@H](C)CC[C@]4(C)CC[C@]23C)[C@@]1(C)C(=O)O [AKBA]
100% | – | > 40 µM | – | 48.7% | Not Active | – | – | – | CC1(C)CC[C@]2(C)CC[C@]3(C)C(=CC[C@@H]4[C@@]5(C)CC[C@@H](O)[C@](C)(C(=O)O)[C@@H]5CC[C@]43C)[C@@H]2C1
100% | – | > 40 µM | > 40 µM | 53.4% | Not Active | – | – | – | C[C@H]1[C@H](C)CC[C@]2(C)CC[C@]3(C)C(=CC[C@@H]4[C@@]5(C)CC[C@@H](O)[C@](C)(C(=O)O)[C@@H]5CC[C@]43C)[C@H]12 [BOSWELLIC ACID]
31.4% | – | – | – | – | – | – | – | – | CC(Cc1ccc(O)c(O)c1)C(C)Cc1ccc(O)c(O)c1 (centres undefined)
100% | – | > 40 µM | – | 47.7% | Not Active | – | – | – | CC1(C)CC[C@]2(C(=O)O)CC[C@]3(C)C(=CC[C@@H]4[C@@]5(C)C[C@@H](O)[C@H](O)[C@@](C)(CO)[C@@H]5CC[C@]43C)[C@@H]2C1 [ARJUNOLIC ACID]
100% | – | > 40 µM | 28.3 µM | 31.9% | Not Active | – | – | – | C[C@H]1[C@H](C)CC[C@]2(C)CC[C@]3(C)C(=CC(=O)[C@@H]4[C@@]5(C)CC[C@@H](O)[C@](C)(C(=O)O)[C@@H]5CC[C@]43C)[C@H]12 [11-KETO BOSWELLIC ACID]
100% | – | > 40 µM | > 40 µM | 66.7% | Not Active | – | – | – | C[C@H]1[C@H](C)CC[C@]2(C(=O)O)CC[C@]3(C)C(=CC[C@@H]4[C@@]5(C)C[C@@H](O)[C@H](O)C(C)(C)[C@@H]5CC[C@]43C)[C@H]12 [COROSOLIC ACID]
100% | – | – | – | 100% | Not Active | Not Active | – | Not Active | CC1(C)CC[C@]2(C)CC[C@]3(C)C(=CC[C@@H]4[C@@]5(C)CCC(=O)C(C)(C)[C@@H]5CC[C@]43C)[C@@H]2C1
70.2% | > 40 µM | – | – | 45% | – | Not Active | Not Active | – | C[C@H]1[C@H](C)CC[C@]2(CO)CC[C@]3(C)C(=CC[C@@H]4[C@@]5(C)CC[C@H](O)C(C)(C)[C@@H]5CC[C@]43C)[C@H]12 [UVAOL]
100% | – | – | – | 100% | Not Active | – | – | Not Active | CC1(C)CC[C@]2(C(=O)O)CC[C@]3(C)C(=CC[C@@H]4[C@@]5(C)CC[C@H](O)C(C)(C)[C@@H]5CC[C@]43C)[C@@H]2C1 [OLEANOLIC_ACID]
24.9% | 12.2 µM | > 40 µM | > 40 µM | 69.5% | – | – | – | – | CC(=O)O[C@@H]1CC[C@@]2(C)[C@@H](CC[C@]3(C)[C@@H]2CC=C2[C@@H]4[C@@H](C)[C@H](C)CC[C@]4(C)CC[C@]23C)[C@@]1(C)C(=O)O
100% | – | > 40 µM | > 40 µM | 61.9% | Not Active | – | – | – | C[C@H]1[C@H](C)CC[C@]2(C(=O)O)CC[C@]3(C)C(=CC[C@@H]4[C@@]5(C)C[C@@H](O)[C@H](O)[C@@](C)(CO)[C@@H]5CC[C@]43C)[C@H]12 [ASIATIC ACID]

SMILES | Activity [1] | IC50 ([2]; read-out: IC50) | IC50 ([3]; read-out: IC50) | IC50 ([4]; read-out: IC50) | Activity [5] | IC50 [2] | IC50 ([3]; sf21) | IC50 [6] | IC50 [4]
CC1(C)[C@@H](O)CC[C@]2(C)[C@H]3CC=C4[C@@H]5C[C@@](C)(C(=O)O)CC[C@]5(C)CC[C@@]4(C)[C@]3(C)CC[C@@H]12 | 100% | – | > 40 µM | – | 49% | Not Active | – | – | –
CC1(C)CC[C@]2(C(=O)O)CC[C@]3(C)C(=CC[C@@H]4[C@@]5(C)C[C@@H](O)[C@H](O)C(C)(C)[C@@H]5CC[C@]43C)[C@@H]2C1 [MASLINIC ACID] | 100% | – | > 40 µM | > 40 µM | 62.9% | Not Active | – | – | –
